Experimental data published in publication PMC9916951, “Enzyme Inhibition-Based Assay to Estimate the Contribution of Formulants to the Effect of Commercial Pesticide Formulations” (International Journal of Molecular Sciences, 2023).
pIC50: −log10 of the molar value. Read-outs that look alike come from different tables or passages of the source.

Columns and labels:
trypsin = biological target: T1, trypsin (Sus scrofa, UniProt P00761); test: Single-enzyme assay system, trypsin activity (absorbance 253 nm); assay type: biochemical, porcine
T1 construct: purchased Sigma-Aldrich; host or cells: porcine pancreas
Method: (§1) The activities of enzyme assay systems were determined by measuring the absorbance of reaction mixture solutions or bioluminescence intensity in the solutions of the analyzed pesticide active ingredients or in the control solution.
Trypsin activity was analyzed in the reaction mixture containing 490 μL of the 0.1 M Clark and Lubs buffer pH 7.6, 11 mU of trypsin, 40 μL of 1 mM hydrochloric acid, and 460 μL of the 0.5 mM BAEE solution. The absorbances of the solutions were measured at 253 nm.
(§2) The effects of the active ingredients of pesticide and the solvents on the activity of the enzymes in the single-enzyme assay systems were determined as the relative activity according to the formula A = (At/Ac)∙100%, where Ac and At are the enzyme activity in the control and in the analyte solution, respectively.
(§3) The parameter IC50 was used to estimate the inhibitory effect of the active ingredients of pesticides on the enzyme activity and the bioluminescence intensity of a multi-enzyme assay system. It is the concentration of the active ingredient decreasing the enzyme activity by 50%.

[1] = biological target: T2, lactate dehydrogenase (LDH) (Oryctolagus cuniculus, UniProt P13491); test: Single-enzyme assay system, LDH activity (absorbance 340 nm); assay type: biochemical, rabbit; details: for IC50 / IC50, LDH: active ingredient alone (AIa); for IC50: read-out: IC50, LDH (converted)
T2 construct: purchased Sigma-Aldrich; host or cells: rabbit muscle
Method: as §1
(§4) The activities of single-enzyme assay systems with Red, ADH, and LDH were determined by changes in the absorbance at 340 nm.
The reaction mixture for the LDH-catalyzed reaction comprised 850 μL of the 0.05 M potassium-phosphate buffer pH 8.0, 9 U of LDH, 40 μL of the 3.25 mM NADH solution, 30 μL of the 69 mM pyruvate solution, and 50 μL of the analyte solution or the solvent solution (control).
as §2, §3

[2] = biological target: T3, alcohol dehydrogenase (ADH) (Saccharomyces cerevisiae, UniProt P00330); test: Single-enzyme assay system, ADH activity (absorbance 340 nm); assay type: biochemical, baker's yeast; details: for IC50: read-out: IC50, ADH (converted)
T3 construct: purchased Sigma-Aldrich; host or cells: baker’s yeast
Method: as §1, §4
The activity of the ADH was estimated by using the following reaction mixture: 1500 μL of the potassium-phosphate buffer 0.05 M pH 7.85, 750 mU of ADH, 40 μL of the 2.4 mM NAD^+ solution, and 25 μL of 95% ethanol. Distilled water and acetonitrile were used as control solutions.
as §2, §3

[3] = biological target: NAD(P)H:FMN-oxidoreductase + luciferase (Red + Luc); test: Coupled enzyme assay system Red + Luc, luminescence intensity; assay type: biochemical, Vibrio fischeri; Photobacterium leiognathi; details: active ingredient alone (AIa)
Method: (§5) The activities of the multi-enzyme assay systems were determined from the values of the luminescence intensity in the presence of the control or the analyte solutions.
To analyze the effect of pesticides on the luminescence intensity of the Red + Luc coupled enzyme assay system, we used the following reaction mixture: 290 μL of the 0.05 M potassium-phosphate buffer pH 6.8; 5 μL of the Red + Luc mixture, preliminarily diluted in 5 mL of the buffer solution; 50 μL of the 0.0025% tetradecanal solution; 50 μL of the 0.5 mM FMN solution; 100 μL of the 0.4 mM NADH solution; and 10–200 μL of the analyte solution or the solvent solution used as a control. Ratio of Red to Luc in the reaction mixture was 1.2:1; and their concentrations were about 15 and 13 nM, respectively.
(§6) The effect of the pesticide active ingredients and solvents on the multi-enzyme reactions was estimated from the residual luminescence intensity calculated according to the formula I = (It/Ic)∙100%, where Ic and It are the average values of luminescence intensity in the presence of the control or analyte solution, respectively.
as §3

[4] = biological target: alcohol dehydrogenase + NAD(P)H:FMN-oxidoreductase + luciferase (ADH + Red + Luc); test: Three-enzyme assay system ADH + Red + Luc, luminescence intensity; assay type: biochemical, baker's yeast; Vibrio fischeri; Photobacterium leiognathi; details: active ingredient alone (AIa)
Method: as §5
An analysis of the activity of the ADH + Red + Luc three-enzyme assay system was performed using the reaction mixture containing 350 μL of the 0.05 M potassium-phosphate buffer pH 6.9; 5 μL of 0.5 mg/mL ADH; 5 μL of the Red + Luc solution, preliminarily diluted in 5 mL of the buffer solution; 50 μL of the 0.0025% tetradecanal solution; 100 μL of the 0.4 mM NAD^+ solution; 10 μL of the 0.5 mM FMN solution; 5 μL of 95% ethanol; and 10–100 μL of the solvent (control) or the analyte solution. The proportions of ADH, Red, and Luc in the reaction mixture were 10:1.2:1, and their concentrations were about 120, 14, and 12 nM, respectively.
as §6, §3

[5] = biological target: lactate dehydrogenase + NAD(P)H:FMN-oxidoreductase + luciferase (LDH + Red + Luc); test: Three-enzyme assay system LDH + Red + Luc, luminescence intensity; assay type: biochemical, rabbit; Vibrio fischeri; Photobacterium leiognathi; details: active ingredient alone (AIa)
Method: as §5
The reaction mixture for analyzing the luminescence intensity of the LDH + Red + Luc three-enzyme assay system consisted of 5 μL of 0.5 mg/mL LDH; 300 μL of the 0.05 M potassium-phosphate buffer pH 7.1; 10 μL of the 15 mM lactate solution; 50 μL of the 0.0025% tetradecanal solution; 10 μL of the Red + Luc solution, preliminarily diluted in 5 mL of the buffer solution; 10 μL of the 0.5 mM FMN solution; 100 μL of the 0.5 mM NAD^+ solution; and 10–50 μL of the analyte solution or the solvent solution (control). The proportions of LDH, Red, and Luc in the reaction mixture were 1.4:1.2:1, and their concentrations were about 36, 31, and 26 nM, respectively.
as §6, §3

[6] = biological target: T4, butyrylcholinesterase (BChE) (Equus caballus, UniProt P81908); test: Single-enzyme assay system, BChE activity (Ellman's method, 412 nm); assay type: biochemical, equine; details: for IC50: active ingredient alone (AIa), read-out: IC50, BChE (converted)
T4 construct: purchased Sigma-Aldrich; host or cells: equine serum
Method: as §1
To analyze BChE activity Ellman’s method was used. The absorbance of the solutions was measured at the 412 nm. We used the following reaction mixture: 800–850 μL of the 0.05 M potassium-phosphate buffer pH 8.0, 70 mU of BChE, 60 μL of 0.2 mM 5,5′-dithiobis (2-nitrobenzoic acid), 60 μL of 0.2 mM S-BCh-I, and 50–100 μL of the analyte solution or the solvent solution used as control.
as §2, §3

[7] = maximum residual levels of the active ingredient, Russian Federation; cited from earlier work
[8] = biological target: alkaline phosphatase (ALP) (Bos taurus, UniProt P19111); test: Single-enzyme assay system, ALP activity (absorbance 405 nm); assay type: biochemical, bovine; details: 13.5 mg/L of fenvalerate (AIa)
Method: as §1
The activity of the ALP was analyzed in the following reaction mixture: 990 μL of the glycine NaOH buffer pH 9.6 containing 0.5 mM MgCl2, 1.2 mU of the ALP solution, 8 μL of the 33 mM […] solution, and 30–50 μL of the analyte solution. The absorbance of the solutions was measured at 405 nm.
as §2, §3

[9] = biological target: NAD(P)H:FMN-oxidoreductase (Red); test: Single-enzyme assay system, Red activity (absorbance 340 nm); assay type: biochemical, Vibrio fischeri; details: active ingredient alone (AIa)
Method: as §1, §4
The reaction mixture for the Red-catalyzed reaction consisted of 750 μL of the 0.05 M potassium-phosphate buffer pH 7.25, 6 mU of Red, 100 μL of the 0.4 mM NADH solution, 10 μL of the 0.5 mM FMN solution, and 5–100 μL of the analyte solution or the solvent (control).
as §2, §3

[10] = test system: Photobacterium phosphoreum; test: Bioluminescence of luminous bacterium P. phosphoreum; assay type: cell-based
Method: Bacterium P. phosphoreum 1889 was provided by the museum at the IBP SB RAS [68]. P. phosphoreum cells were grown for 24 h on solid medium for marine bacteria. The cells were suspended in the sodium-phosphate buffer pH 7.4.
The effects of active ingredients of pesticides on the luminous bacterium were determined by changes in the bacterial luminescence intensity in the presence of the analyte relative to the control value. The solvent was used as a control solution. The reaction mixture for analyzing the luminescence intensity of luminous bacterium in the presence of control solution contained 450 μL of bacterial suspension and 5 μL of ethanol or 50 μL of distilled water, used as solvents for active ingredients of pesticides. A cuvette with the reaction mixture was placed into a luminometer, and luminescence intensity (Ic) was measured after 1 min. Then, another aliquot of bacterial suspension and 5 or 50 μL of a pesticide active ingredient solution were placed into a luminometer cuvette, and luminescence intensity (It) was measured after 1 min. The residual luminescence intensity was determined according to the formula I = (It/Ic) ∙ 100%.
The parameter EC50 was used to estimate the inhibitory effect of the active ingredients of pesticides on the bioluminescence of P. phosphoreum. […]

T3 sequence (P00330 whole entry): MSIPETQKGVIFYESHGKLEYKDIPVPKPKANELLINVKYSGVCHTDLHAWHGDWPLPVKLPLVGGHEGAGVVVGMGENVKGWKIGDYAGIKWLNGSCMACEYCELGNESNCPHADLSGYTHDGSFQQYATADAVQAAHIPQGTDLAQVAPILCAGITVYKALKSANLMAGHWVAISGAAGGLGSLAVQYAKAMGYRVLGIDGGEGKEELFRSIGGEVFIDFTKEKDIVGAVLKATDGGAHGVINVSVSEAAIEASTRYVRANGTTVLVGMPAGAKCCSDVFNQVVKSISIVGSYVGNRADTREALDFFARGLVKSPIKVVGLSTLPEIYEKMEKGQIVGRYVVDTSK
T1 sequence (P00761 9-231): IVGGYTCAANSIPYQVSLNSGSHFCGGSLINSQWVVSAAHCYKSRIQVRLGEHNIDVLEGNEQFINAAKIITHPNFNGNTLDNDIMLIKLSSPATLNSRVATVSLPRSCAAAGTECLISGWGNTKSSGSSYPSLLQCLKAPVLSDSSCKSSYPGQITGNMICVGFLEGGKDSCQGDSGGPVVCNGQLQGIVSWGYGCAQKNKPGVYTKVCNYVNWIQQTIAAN
T4 sequence (P81908 whole entry): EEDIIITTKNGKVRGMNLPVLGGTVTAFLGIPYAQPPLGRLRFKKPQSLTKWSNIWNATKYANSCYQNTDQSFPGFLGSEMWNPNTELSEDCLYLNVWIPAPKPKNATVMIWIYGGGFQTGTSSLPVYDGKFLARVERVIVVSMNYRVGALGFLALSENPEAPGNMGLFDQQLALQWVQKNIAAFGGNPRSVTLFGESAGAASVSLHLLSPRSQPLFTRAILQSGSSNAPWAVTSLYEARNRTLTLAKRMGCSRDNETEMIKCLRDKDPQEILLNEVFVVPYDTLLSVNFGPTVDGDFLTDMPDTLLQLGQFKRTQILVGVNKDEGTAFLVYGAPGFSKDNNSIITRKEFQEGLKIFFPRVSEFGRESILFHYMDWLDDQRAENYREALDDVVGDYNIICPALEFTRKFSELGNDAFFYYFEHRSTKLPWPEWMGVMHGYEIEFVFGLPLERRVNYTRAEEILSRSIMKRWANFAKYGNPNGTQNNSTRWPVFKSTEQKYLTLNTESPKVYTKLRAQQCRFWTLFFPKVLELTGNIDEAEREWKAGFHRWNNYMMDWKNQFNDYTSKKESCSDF
alkaline phosphatase (ALP), sequence (P19111 20-506): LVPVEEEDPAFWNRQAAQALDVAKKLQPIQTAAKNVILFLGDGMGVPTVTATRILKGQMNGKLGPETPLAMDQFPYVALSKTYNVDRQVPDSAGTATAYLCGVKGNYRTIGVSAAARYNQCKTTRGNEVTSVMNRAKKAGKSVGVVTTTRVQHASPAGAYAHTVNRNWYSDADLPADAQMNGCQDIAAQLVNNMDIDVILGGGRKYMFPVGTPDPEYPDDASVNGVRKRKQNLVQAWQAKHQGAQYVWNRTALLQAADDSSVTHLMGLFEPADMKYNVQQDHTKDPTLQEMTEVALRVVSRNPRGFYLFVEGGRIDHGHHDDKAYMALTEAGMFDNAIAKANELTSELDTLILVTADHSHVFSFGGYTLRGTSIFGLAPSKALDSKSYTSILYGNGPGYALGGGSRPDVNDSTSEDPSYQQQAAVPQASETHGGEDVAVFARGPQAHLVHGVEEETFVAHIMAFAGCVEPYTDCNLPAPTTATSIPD

Structure (SMILES)	IC50 [1] [µM]	IC50 ([2]; active ingredient alone (AIa)) [µM]	IC50, Red + Luc [3]	IC50, ADH + Red + Luc [4]	IC50, LDH + Red + Luc [5]	IC50 [6] [µM]	MRL RUS [7] [mg/kg]	also measured
CC1(C)C(C=C(Cl)Cl)C1C(=O)OC(C#N)c1cccc(Oc2ccccc2)c1 (stereo not shown) [Cypermethrin, cypermethrin]	60.1	0.48	1.8 µg/mL	0.2 µg/mL	6.5 µg/mL			IC50, Trypsin (trypsin; active ingredient alone (AIa)): No inhibitory effects
CC1(C)[C@H](C(=O)O[C@H](C#N)c2cccc(Oc3ccccc3)c2)[C@@H]1C=C(Br)Br [Deltamethrin, deltamethrin]	59.4	20.6	3.7 µg/mL	1.0 µg/mL	7.7 µg/mL	198	0.01 to 0.3	
CCOP(=S)(OCC)Oc1cc(C)nc(C(C)C)n1 [Diazinon, diazinon]			2234 µg/mL	11 µg/mL	3351 µg/mL		0.1 to 0.5	IC50, LDH [1]: No inhibitory effects; pIC50 [2]: 4.32
CC(C)C(C(=O)OC(C#N)c1cccc(Oc2ccccc2)c1)c1ccc(Cl)cc1 (stereo not shown) [Fenvalerate, fenvalerate]	7.14		4.8 µg/mL	1.6 µg/mL	31.7 µg/mL	286		increase in trypsin activity (trypsin; 10 mg/L of fenvalerate (AIa)): 28%; increase in ALP activity [8]: 26%; IC50, ADH ([2]; active ingredient alone (AIa)): No inhibitory effects
O=C(O)CNCP(=O)(O)O [Glyphosate, glyphosate]		30400	288 µg/mL	3200 µg/mL	935 µg/mL	207		IC50 (trypsin; active ingredient alone (AIa), read-out: IC50, Trypsin (converted)): 5690 µM; IC50 (trypsin; glyphosate as AIa, read-out: IC50, trypsin (Figure 2 legend) (converted)): 5680 µM; IC50, LDH [1]: no 50% inhibition; IC50, Red [9]: no 50% inhibition; concentration giving 50% inhibition of Red + Luc activity [3]: 0.3 g/L
O=[N+]([O-])NC1=NCCN1Cc1ccc(Cl)nc1 [Imidacloprid, imidacloprid]			– (No inhibitory effect of the AIa and AIf was detected in the tested concentration range.)	– (No inhibitory effect of the AIa and AIf was detected in the tested concentration range.)	– (No inhibitory effect of the AIa and AIf was detected in the tested concentration range.)		0.1 to 1.0	EC50, P. phosphoreum bioluminescence ([10]; active ingredient alone (AIa), luminescence after 1 min): did not produce any detectable effect; EC20 (20% quenching of bacterial bioluminescence) ([10]; imidacloprid as AIa and as AIf): 50 µg/mL
CCOC(=O)CC(SP(=S)(OC)OC)C(=O)OCC (stereo not shown) [Malathion, malathion]							0.05 to 1.0	pIC50 [6]: 2.74; pIC50 [1]: 2.97
